Experiment [1] relates to BDC2.5 TCR. Description: I-Ag7 SABR-II library screen, enrichment score. It counts as cell-based, mouse. The conditions noted are these: I-Ag7 library. The text has this:
We then asked whether SABR-IIs could be used to present a library of epitopes for CD4^+ T cell antigen discovery. To that end, we constructed a SABR-II library to present epitopes derived from pancreatic islets in I-Ag7 by curating a list of 4,075 published epitopes from the Immune Epitope Database (iedb.org)[50] and a study by Wan et al.[51] (Supplementary Table 1). Of note, this defined library consisted of unmodified epitopes from endogenous proteins, synthetic mimotopes, deamidated epitopes and hybrid insulin peptides (HIPs) that arise from post-translational fusion and are not genetically encoded in vivo[52],[53]. The epitope library was inserted into the I-Ag7 SABR-II backbone through pooled oligonucleotide synthesis, amplification and ligation-free cloning (Extended Data Fig. 3a). The I-Ag7 SABR-II-library was then expressed in NFAT–GFP Jurkat cells. We confirmed that after sequencing, the library accounted for a mean of 708 reads per epitope (Extended Data Fig. 3b). As a proof of concept, we performed co-incubation assays with Jurkat cells expressing the BDC2.5 TCR and sorted the top 1–2% of GFP^+CD69^+ cells at a rate of ~20 min per replicate with three replicates per TCR. We extracted the genomic DNA from sorted cells, amplified the SABR portion of the integrated proviruses and subjected the amplicons to Illumina sequencing (Extended Data Fig. 3c,d). The 1–2% sort gate represents >50-fold enrichment of cognate epitopes with minimal loss of signal (Extended Data Fig. 3e–h). Sequence reads were aligned to the I-Ag7 SABR-II backbone and the corresponding epitopes were scored based on their read counts. For each TCR under investigation, an enrichment score (ES) was determined for all the epitopes in a library. In each experiment, three replicates of a sort with TCR-expressing Jurkat cells were performed and reads were counted post-sequencing. In addition, three replicates of the unsorted library were also sequenced. A linear regression model was built using the unsorted library counts and used to determine the expected abundance of each epitope in the library. The ES was calculated based on the difference between the measured and the expected abundance of each epitope on a per-TCR basis (Fig. 1e). Based on ES values, two quantitative thresholds were used to determine putative cognate epitopes of a given TCR. A high-confidence zone containing clear outliers with a high ES and a low-confidence zone containing weak outliers with a moderately high ES were determined (Fig. 1e). This two-tiered strategy was used to call putative hits from screens. All the top-scoring epitopes for the BDC2.5 TCR were known BDC2.5 ligands containing the WXRM(D/E) motif (Fig. 1f,g, enriched ligands in red), a well-characterized trait of the BDC2.5 TCR[43],[54]–[56]. Across several independent experiments there was limited variation in ES values for the same TCRs and several epitopes fell into high- or low-confidence zones consistently (Extended Data Fig. 4a). Using a different TCR that was isolated from NOD mice, 4-8Ins[57], which recognized the InsB9:23 epitope ([…]), we observed a similar pattern of ES for cognate epitopes (Extended Data Fig. 4b).
For SABR library screens, 3 × 10^6 NFAT–GFP Jurkat cells expressing the SABR library were labeled with CellTrace Violet (BioLegend) according to the manufacturer’s protocol before incubation with 3 × 10^6 Jurkat cells expressing the TCR of interest. These mixtures were incubated in a six-well plate for 16–20 h. Cells were stained with anti-CD69-APC-Cy7 where indicated (BioLegend) and the top 1–2% of GFP^+CD69^+ cells were sorted for genomic DNA extraction, indexing and sequencing (see below). Multiplexed assays were scaled on a per-TCR basis (for example 3 × 10^6 for each of three TCRs against 9 × 10^6 library cells). […]

In experiment [2] the test system is Jurkat cells, No TCR. Description: Single SABR-II co-incubation, background without TCR. It counts as cell-based, human. The conditions noted are these: No TCR, Ext. Data Fig. 6C, 18-20 hr. The text has this: (§1) We performed systematic screening of the cloned TCRs against the I-Ag7 SABR-II library. Several TCRs along with a positive control (such as BDC2.5 or 4-8Ins) were screened individually against the library for each sort (Extended Data Fig. 6a and Supplementary Table 4). High- and low-confidence ES zones for each screened TCR were defined by the ES values of the control TCR’s cognate epitopes. For all putative cognate epitopes, single SABR-IIs were constructed, expressed in NFAT–GFP Jurkat cells and used for co-incubation with the corresponding TCRs. Co-incubation assays that yielded a GFP signal higher than that obtained in assays with no TCR were determined to be positive and the epitopes deemed true cognate ligands (Extended Data Fig. 6b,c). Using this strategy, we obtained epitopes in the high-confidence zone for eight TCRs (Fig. 3a and Extended Data Fig. 6b,d). Among numerous altered peptide ligands (APLs), these TCRs recognized the physiological InsC-ChgA HIP ([…] and analogs, recognized by TCR5, TCR6B, TCR9 and TCR34), InsC-Iapp HIP ([…] and analogs, recognized by TCR4 and TCR15) and InsB9:23 ([…] and analogs recognized by TCR24 and TCR37). These cognate high-confidence hits were validated using single SABR-II co-incubation assays (Fig. 3b and Extended Data Fig. 7a). Further validations using in vitro mouse interleukin-2 (mIL-2) secretion by TCR-expressing 5KC reporter cells[13] or CD25 expression by TCR-expressing splenic CD4^+ T cells upon stimulation with the cognate epitope were performed (Extended Data Fig. 7b,c). Furthermore, low-confidence hits were called for ten TCRs and tested in co-incubation assays.
(§2) For SABR library screens, 3 × 10^6 NFAT–GFP Jurkat cells expressing the SABR library were labeled with CellTrace Violet (BioLegend) according to the manufacturer’s protocol before incubation with 3 × 10^6 Jurkat cells expressing the TCR of interest. These mixtures were incubated in a six-well plate for 16–20 h. Cells were stained with anti-CD69-APC-Cy7 where indicated (BioLegend) and the top 1–2% of GFP^+CD69^+ cells were sorted for genomic DNA extraction, indexing and sequencing (see below). Multiplexed assays were scaled on a per-TCR basis (for example 3 × 10^6 for each of three TCRs against 9 × 10^6 library cells). For single SABR assays, unless otherwise defined, 5 × 10^5 SABR expressing NFAT–GFP Jurkat cells (or 5KC cells) were labeled with CellTrace Violet (BioLegend) according to the manufacturer’s protocol before incubation with 5 × 10^5 TCR-expressing Jurkat cells (or 5KC cells) in a round-bottom 96-well plate for 16–20 h. Cells were stained with anti-CD69-APC-Cy7 when indicated and acquired on the Attune NxT flow cytometer (Thermo Fisher Scientific). All flow analysis was performed using FlowJo (BD). For Daudi cell co-culture, 1 × 10^6 Jurkat cells expressing the TCR of interest were incubated with 1 × 10^6 Daudi cells expressing a SABR of interest for 3 days. On day 3, cells were labeled with anti-RT1B-PE and anti-Fas-APC-Cy7 before being acquired on the Attune NxT flow cytometer.

For experiment [3], the system named is TCR5. Description: Single SABR-II co-incubation, NFAT-GFP Jurkat. It counts as cell-based, mouse. The conditions noted are these: TCR 5, Ext. Data Fig. 6C, 18-20 hr.
Text: as §1, §2

For experiment [4], the system named is TCR4. The experiment can be described thus: Single SABR-II co-incubation, NFAT-GFP Jurkat. It counts as cell-based, mouse. The settings on record: TCR 4, Ext. Data Fig. 6C, 18-20 hr.
Text: as §1, §2

Setting [5] is: EXPT1 of 8 biological experiments.

Take RLGLWSRMDQLAKELTAE: the Enrichment score was found to be 0.001771 in experiment [1] (setting [5]); 0.001151 in experiment [1] (EXPT2 of 8); 0.002655 in experiment [1] (EXPT3 of 8); 0.001435 in experiment [1] (EXPT4 of 8); 0.002428 in experiment [1] (EXPT5 of 8); 0.00271 in experiment [1] (EXPT6 of 8). For the same sequence, the Enrichment score in experiment [1] (EXPT7 of 8) is 0.002468; in experiment [1] (EXPT8 of 8), 0.002661. Further, the “%GFP+CD69+ cells of SABR-NFAT-GFP-Jurkat cells” value (from here on “%GFP+CD69+ cells”) in experiment [2] (technical replicate 1) was 1.36%; in experiment [2] (technical replicate 2), 1.22%; in experiment [3] (technical replicate 1) it was 56.2%; in experiment [3] (technical replicate 2), 56%.
Turning to RRAGDLQTLWSRMDARR, the Enrichment score in experiment [1] (setting [5]) was 0.002517; in experiment [1] (EXPT2 of 8), 0.001322; in experiment [1] (EXPT3 of 8), 0.002797; in experiment [1] (EXPT4 of 8) it was 0.002419; in experiment [1] (EXPT5 of 8) it was 0.002428; in experiment [1] (EXPT6 of 8), 0.002187. Further, the Enrichment score in experiment [1] (EXPT7 of 8) is given as 0.002605; in experiment [1] (EXPT8 of 8), 0.002542. The “%GFP+CD69+ cells” value is listed as 0.37% in experiment [2] (technical replicate 1), 0.41% in experiment [2] (technical replicate 2), 22.4% in experiment [3] (technical replicate 1) and 18.8% in experiment [3] (technical replicate 2).
Consider RRALQTLALNAARDP, for which the “%GFP+CD69+ cells” value in experiment [2] (technical replicate 1) is reported as 4.17%; in experiment [2] (technical replicate 2), 3.8%; in experiment [4] (technical replicate 1), 12.8%; in experiment [4] (technical replicate 2), 12.1%.
As for SRLGLWSRMDQLAKELTAE, the Enrichment score in experiment [1] (setting [5]) was determined as 0.002042; in experiment [1] (EXPT2 of 8), 0.001129; in experiment [1] (EXPT3 of 8), 0.002688; in experiment [1] (EXPT4 of 8) it was 0.002123; in experiment [1] (EXPT5 of 8), 0.003298; in experiment [1] (EXPT6 of 8) it was 0.002741. In addition, the Enrichment score in experiment [1] (EXPT7 of 8) turned out to be 0.00232; in experiment [1] (EXPT8 of 8), 0.003121. The “%GFP+CD69+ cells” value is given as 1.65% in experiment [2] (technical replicate 1), 1.6% in experiment [2] (technical replicate 2), 73.5% in experiment [3] (technical replicate 1) and 71.6% in experiment [3] (technical replicate 2).
With SRLGLWVRMEQLAKELTAE, the Enrichment score in experiment [1] (setting [5]) was determined as 0.001795; in experiment [1] (EXPT2 of 8), 0.001184; in experiment [1] (EXPT3 of 8) it was 0.002703; in experiment [1] (EXPT4 of 8) it was 0.001978; in experiment [1] (EXPT5 of 8), 0.002454; in experiment [1] (EXPT6 of 8), 0.002768. Further, the results for the Enrichment score in experiment [1] (EXPT7 of 8) and in experiment [1] (EXPT8 of 8) were 0.002526 and 0.002128, respectively. For the same sequence, the “%GFP+CD69+ cells” value in experiment [2] (technical replicate 1) is recorded as 1.58%; in experiment [2] (technical replicate 2), 1.53%; in experiment [3] (technical replicate 1) it was 21.9%; in experiment [3] (technical replicate 2) it was 19.4%.

The values are drawn from paper PMC11093748, “De novo identification of CD4^+ T cell epitopes” (Nature Methods, 2024).
